We go through one molecule from PMC5218480 (PLoS ONE, 2017).

This assay relates to MV-4-11 cells. The experiment in a line: Gene expression microarray analysis (Affymetrix PrimeView) and GSEA. The conditions noted are these: ProbeSet 11748335_a_at; LIST B. The format is cell-based, human. Details: RFU PODN (11730768_x_at) / Fold change /veh PODN (11730768_x_at) / RFU LINC00158 (11744669_a_at) / Fold change /veh LINC00158 (11744669_a_at) / RFU DUSP10 (11751237_a_at) / Fold change /veh DUSP10 (11751237_a_at) / RFU ID3 (11757404_x_at) / Fold change /veh ID3 (11757404_x_at) / RFU PLEKHG5 (11737974_s_at) / Fold change /veh PLEKHG5 (11737974_s_at) / RFU LRRC4B (11730491_at) / Fold change /veh LRRC4B (11730491_at) / RFU GIMAP4 (11747438_a_at) / Fold change /veh GIMAP4 (11747438_a_at) / RFU KRT8 (11758183_x_at) / Fold change /veh KRT8 (11758183_x_at) / RFU CNN1 (11734310_a_at) / Fold change /veh CNN1 (11734310_a_at) / RFU VPS37D (11726825_at) / Fold change /veh VPS37D (11726825_at) / RFU C10orf10 (11716522_x_at) / Fold change /veh C10orf10 (11716522_x_at) / RFU KIR2DL2 /// KIR2DL4 /// KIR2DL5A /// KIR2DL5B /// KIR2DS1 /// KIR2DS2 /// KIR2DS3 /// KIR2DS4 /// KIR3DL3 /// KIR3DL3 /// KIR3DS1 (11738374_at) / Fold change /veh KIR2DL2 /// KIR2DL4 /// KIR2DL5A /// KIR2DL5B /// KIR2DS1 /// KIR2DS2 /// KIR2DS3 /// KIR2DS4 /// KIR3DL3 /// KIR3DL3 /// KIR3DS1 (11738374_at) / RFU C1QL1 (11718748_at) / Fold change /veh C1QL1 (11718748_at) / RFU TMPRSS4 (11747572_a_at) / Fold change /veh TMPRSS4 (11747572_a_at) / RFU HAMP (11756126_x_at) / Fold change /veh HAMP (11756126_x_at) / RFU RNFT2 (11725882_a_at) / Fold change /veh RNFT2 (11725882_a_at) / RFU NR4A2 (11747474_a_at) / Fold change /veh NR4A2 (11747474_a_at) / RFU ABCC12 (11746883_a_at) / Fold change /veh ABCC12 (11746883_a_at) / RFU TMEM136 (11760407_x_at) / Fold change /veh TMEM136 (11760407_x_at) / RFU CLDN22 /// WWC2 (11732394_at) / Fold change /veh CLDN22 /// WWC2 (11732394_at) / RFU HLA-DPB1 (11760878_x_at) / Fold change /veh HLA-DPB1 (11760878_x_at) / RFU SPINT1 (11716480_a_at) / Fold change /veh SPINT1 (11716480_a_at) / RFU GAP43 (11754022_s_at) / Fold change /veh GAP43 (11754022_s_at) / RFU A4GNT (11735810_at) / Fold change /veh A4GNT (11735810_at) / RFU PRB3 (11715151_x_at) / Fold change /veh PRB3 (11715151_x_at) / RFU TUBB4B (11761932_at) / Fold change /veh TUBB4B (11761932_at) / RFU CAPN14 (11732068_a_at) / Fold change /veh CAPN14 (11732068_a_at) / RFU TMCC2 (11721928_a_at) / Fold change /veh TMCC2 (11721928_a_at) / RFU IRGQ (11745062_a_at) / Fold change /veh IRGQ (11745062_a_at) / RFU FAM174B (11720279_a_at) / Fold change /veh FAM174B (11720279_a_at) / RFU TMPRSS4 (11748680_a_at) / Fold change /veh TMPRSS4 (11748680_a_at) / RFU FAM212B (11763350_a_at) / Fold change /veh FAM212B (11763350_a_at) / RFU PLEKHG5 (11743358_a_at) / Fold change /veh PLEKHG5 (11743358_a_at) / RFU ZSCAN30 (11745921_a_at) / Fold change /veh ZSCAN30 (11745921_a_at) / RFU CMKLR1 (11741424_a_at) / Fold change /veh CMKLR1 (11741424_a_at) / RFU LOC101060620 /// MAPK8IP1 (11723275_at) / Fold change /veh LOC101060620 /// MAPK8IP1 (11723275_at) / RFU SPTSSB (11747773_x_at) / Fold change /veh SPTSSB (11747773_x_at) / RFU PRSS12 (11739890_at) / Fold change /veh PRSS12 (11739890_at) / RFU BIN1 (11741810_x_at) / Fold change /veh BIN1 (11741810_x_at) / RFU WNT11 (11732464_a_at) / Fold change /veh WNT11 (11732464_a_at) / RFU C10orf10 (11716521_a_at) / Fold change /veh C10orf10 (11716521_a_at) / RFU C5orf56 (11738089_at) / Fold change /veh C5orf56 (11738089_at) / RFU CYB561 (11721691_x_at) / Fold change /veh CYB561 (11721691_x_at) / RFU ANKRD19P (11752326_a_at) / Fold change /veh ANKRD19P (11752326_a_at) / RFU OR2T12 /// OR2T33 /// OR2T8 (11738714_s_at) / Fold change /veh OR2T12 /// OR2T33 /// OR2T8 (11738714_s_at) / RFU VCAN (11748164_a_at) / Fold change /veh VCAN (11748164_a_at) / RFU JSRP1 (11732532_at) / Fold change /veh JSRP1 (11732532_at) / RFU KRTAP10-11 (11738290_x_at) / Fold change /veh KRTAP10-11 (11738290_x_at) / RFU MYO3A (11730013_a_at) / Fold change /veh MYO3A (11730013_a_at) / RFU EBF3 (11725865_a_at) / Fold change /veh EBF3 (11725865_a_at) / RFU CAMK2N1 (11719241_x_at) / Fold change /veh CAMK2N1 (11719241_x_at) / RFU C5orf56 (11738088_a_at) / Fold change /veh C5orf56 (11738088_a_at) / RFU OLFML3 (11715873_a_at) / Fold change /veh OLFML3 (11715873_a_at) / RFU LOC100653217 /// NTM (11731650_a_at) / Fold change /veh LOC100653217 /// NTM (11731650_a_at) / RFU MAPK11 (11762145_a_at) / Fold change /veh MAPK11 (11762145_a_at) / RFU FIZ1 (11724087_x_at) / Fold change /veh FIZ1 (11724087_x_at) / RFU OASL (11726364_x_at) / Fold change /veh OASL (11726364_x_at) / RFU SOX15 (11748057_x_at) / Fold change /veh SOX15 (11748057_x_at) / RFU CD79A (11719716_a_at) / Fold change /veh CD79A (11719716_a_at) / RFU HIST1H1D (11736915_at) / Fold change /veh HIST1H1D (11736915_at) / RFU CASKIN2 (11723855_a_at) / Fold change /veh CASKIN2 (11723855_a_at) / RFU LOC730098 (11760151_x_at) / Fold change /veh LOC730098 (11760151_x_at) / RFU OR4N2 (11742367_at) / Fold change /veh OR4N2 (11742367_at) / RFU PRRT2 (11749266_a_at) / Fold change /veh PRRT2 (11749266_a_at) / RFU SNX32 (11753110_a_at) / Fold change /veh SNX32 (11753110_a_at) / RFU CDHR5 (11726645_a_at) / Fold change /veh CDHR5 (11726645_a_at) / RFU RCAN1 (11760418_a_at) / Fold change /veh RCAN1 (11760418_a_at) / RFU FAM167A (11723789_a_at) / Fold change /veh FAM167A (11723789_a_at) / RFU FAM26E (11764081_at) / Fold change /veh FAM26E (11764081_at) / RFU ISYNA1 (11749810_s_at) / Fold change /veh ISYNA1 (11749810_s_at) / RFU ACY1 (11761880_at) / Fold change /veh ACY1 (11761880_at) / RFU 11764098_at / Fold change /veh 11764098_at / RFU SAMD14 (11745864_x_at) / Fold change /veh SAMD14 (11745864_x_at) / RFU NPB (11741838_a_at) / Fold change /veh NPB (11741838_a_at) / RFU TMPRSS6 (11731388_a_at) / Fold change /veh TMPRSS6 (11731388_a_at) / RFU KRTAP10-2 (11738614_at) / Fold change /veh KRTAP10-2 (11738614_at) / RFU ARHGAP8 /// PRR5-ARHGAP8 (11727945_x_at) / Fold change /veh ARHGAP8 /// PRR5-ARHGAP8 (11727945_x_at) / RFU KRTAP5-7 /// NADSYN1 (11734609_at) / Fold change /veh KRTAP5-7 /// NADSYN1 (11734609_at) / RFU RASL12 (11751679_a_at) / Fold change /veh RASL12 (11751679_a_at) / RFU CDKN2B (11736163_a_at) / Fold change /veh CDKN2B (11736163_a_at) / RFU PRF1 (11729649_at) / Fold change /veh PRF1 (11729649_at) / RFU, ZNF638 /// ZNF638-IT1 / Fold change vs veh, ZNF638 /// ZNF638-IT1 / RFU, PANK3 / Fold change vs veh, PANK3 / RFU, SH3YL1 / Fold change vs veh, SH3YL1 / RFU, ZEB2 / Fold change vs veh, ZEB2 / RFU, NRIP1 / Fold change vs veh, NRIP1 / RFU, PTTG1IP / Fold change vs veh, PTTG1IP / RFU, CAPN2 / Fold change vs veh, CAPN2 / RFU, MED14 / Fold change vs veh, MED14 / RFU, SNORA58 / Fold change vs veh, SNORA58 / RFU, C1orf63 / Fold change vs veh, C1orf63 / RFU, LRRFIP1 / Fold change vs veh, LRRFIP1 / RFU, NDUFAF7 / Fold change vs veh, NDUFAF7 / RFU, SLC12A2 / Fold change vs veh, SLC12A2 / RFU, IBTK / Fold change vs veh, IBTK / RFU, ESF1 / Fold change vs veh, ESF1 / Fold change vs veh, TMEM50B / RFU, TAOK1 / Fold change vs veh, TAOK1 / RFU, ACBD3 / Fold change vs veh, ACBD3 / RFU, TMA16 / Fold change vs veh, TMA16 / RFU, RWDD3 / Fold change vs veh, RWDD3 / RFU, BCAT1 / Fold change vs veh, BCAT1 / RFU, EDEM3 / Fold change vs veh, EDEM3 / RFU, TMEM33 / Fold change vs veh, TMEM33 / RFU, WDR75 / Fold change vs veh, WDR75 / RFU, AHCTF1 / Fold change vs veh, AHCTF1 / RFU, TFRC / Fold change vs veh, TFRC / RFU, ZDHHC17 / Fold change vs veh, ZDHHC17 / RFU, NOM1 / Fold change vs veh, NOM1 / RFU, ARL8B / Fold change vs veh, ARL8B / RFU, ZBTB11 / Fold change vs veh, ZBTB11 / RFU, TAMM41 / Fold change vs veh, TAMM41 / RFU, KIAA1704 /// LOC100996395 / Fold change vs veh, KIAA1704 /// LOC100996395 / RFU, ING1 / Fold change vs veh, ING1 / RFU, TRMT61B / Fold change vs veh, TRMT61B / RFU, FUBP3 / Fold change vs veh, FUBP3 / RFU, TP53 / Fold change vs veh, TP53 / RFU, TNKS2 / Fold change vs veh, TNKS2 / RFU, ZFP14 / Fold change vs veh, ZFP14 / RFU, ACTR2 / Fold change vs veh, ACTR2 / RFU, PPP3R1 / Fold change vs veh, PPP3R1 / RFU, PIK3R1 / Fold change vs veh, PIK3R1 / RFU, HNRNPA1 / Fold change vs veh, HNRNPA1 / RFU, RNF170 / Fold change vs veh, RNF170 / RFU, ZNF28 / Fold change vs veh, ZNF28 / RFU, RNGTT / Fold change vs veh, RNGTT / RFU, OGT / Fold change vs veh, OGT / RFU, BRD1 / Fold change vs veh, BRD1 / RFU, MARS / Fold change vs veh, MARS / RFU, ZNF655 / Fold change vs veh, ZNF655 / RFU, FAHD1 / Fold change vs veh, FAHD1 / RFU, BDP1 / Fold change vs veh, BDP1 / RFU, LRRCC1 / Fold change vs veh, LRRCC1 / RFU, ARID1A / Fold change vs veh, ARID1A / RFU, ZNF146 / Fold change vs veh, ZNF146 / RFU, ZNF330 / Fold change vs veh, ZNF330 / RFU, GPN3 / Fold change vs veh, GPN3 / RFU, C9orf123 / Fold change vs veh, C9orf123 / RFU, N4BP2L2 / Fold change vs veh, N4BP2L2 / RFU, ARFIP1 / Fold change vs veh, ARFIP1 / RFU, FAM179B / Fold change vs veh, FAM179B / RFU, BCL10 / Fold change vs veh, BCL10 / RFU, UHRF1BP1L / Fold change vs veh, UHRF1BP1L / RFU, BET1 / Fold change vs veh, BET1 / RFU, CNOT2 / Fold change vs veh, CNOT2 / RFU, ZNF268 / Fold change vs veh, ZNF268 / Fold change vs veh, ZNF507 / RFU, DGCR2 / Fold change vs veh, DGCR2 / RFU, WDSUB1 / Fold change vs veh, WDSUB1 / Fold change vs veh, HSP90B1 /// MIR3652 / RFU, ADSS / Fold change vs veh, ADSS / RFU, GK / Fold change vs veh, GK / RFU, ZNF148 / Fold change vs veh, ZNF148 / RFU, TAF9 / Fold change vs veh, TAF9 / RFU, SLC1A5 / Fold change vs veh, SLC1A5 / RFU, SLMO2 / Fold change vs veh, SLMO2 / RFU, ABCC4 / Fold change vs veh, ABCC4 / RFU, LOC101060439 /// RAP1B / Fold change vs veh, LOC101060439 /// RAP1B / RFU, RFX7 / Fold change vs veh, RFX7 / RFU, GTPBP10 / Fold change vs veh, GTPBP10 / RFU, CNEP1R1 / Fold change vs veh, CNEP1R1 / RFU, BIVM-ERCC5 /// ERCC5 / Fold change vs veh, BIVM-ERCC5 /// ERCC5 / RFU, ILF3 / Fold change vs veh, ILF3 / RFU 11762660_at / Fold change /veh 11762660_at / RFU VCAN (11757783_s_at) / Fold change /veh VCAN (11757783_s_at) / RFU DDX43 (11728927_at) / Fold change /veh DDX43 (11728927_at) / RFU KRT8 (11758188_x_at) / Fold change /veh KRT8 (11758188_x_at) / RFU NKD1 (11759106_at) / Fold change /veh NKD1 (11759106_at) / RFU SRD5A1 (11742802_a_at) / Fold change /veh SRD5A1 (11742802_a_at) / RFU TPSAB1 /// TPSB2 (11721975_s_at) / Fold change /veh TPSAB1 /// TPSB2 (11721975_s_at) / RFU GSTM3 (11746129_a_at) / Fold change /veh GSTM3 (11746129_a_at) / RFU IL23R (11737362_x_at) / Fold change /veh IL23R (11737362_x_at) / RFU TMEM51 (11727254_a_at) / Fold change /veh TMEM51 (11727254_a_at) / RFU PIWIL2 (11732686_x_at) / Fold change /veh PIWIL2 (11732686_x_at) / RFU ORM1 (11744905_x_at) / Fold change /veh ORM1 (11744905_x_at) / RFU CCDC152 (11743942_at) / Fold change /veh CCDC152 (11743942_at) / RFU ECM1 (11717891_a_at) / Fold change /veh ECM1 (11717891_a_at) / RFU IL23R (11748794_a_at) / Fold change /veh IL23R (11748794_a_at) / RFU TNFAIP8L3 (11732012_x_at) / Fold change /veh TNFAIP8L3 (11732012_x_at) / RFU MBOAT4 (11741988_at) / Fold change /veh MBOAT4 (11741988_at) / RFU 11764193_at / Fold change /veh 11764193_at / RFU TMEM53 (11763286_at) / Fold change /veh TMEM53 (11763286_at) / RFU MAGEB2 (11727129_at) / Fold change /veh MAGEB2 (11727129_at) / RFU TMEM200A (11744735_a_at) / Fold change /veh TMEM200A (11744735_a_at) / RFU CCDC152 (11751479_a_at) / Fold change /veh CCDC152 (11751479_a_at) / RFU FAM211A (11726209_a_at) / Fold change /veh FAM211A (11726209_a_at) / RFU RGS16 (11746705_a_at) / Fold change /veh RGS16 (11746705_a_at) / RFU VCAN (11755009_s_at) / Fold change /veh VCAN (11755009_s_at) / RFU RHOB (11743442_s_at) / Fold change /veh RHOB (11743442_s_at) / RFU RGS16 (11720943_a_at) / Fold change /veh RGS16 (11720943_a_at) / RFU RGS16 (11720944_at) / Fold change /veh RGS16 (11720944_at) / RFU, VPS4B / Fold change vs veh, VPS4B / RFU, CREB1 / Fold change vs veh, CREB1 / RFU, DNAJC13 / Fold change vs veh, DNAJC13 / RFU, GNAQ / Fold change vs veh, GNAQ / RFU, CDK5R1 / Fold change vs veh, CDK5R1 / RFU, ZRANB3 / Fold change vs veh, ZRANB3 / RFU, CUL4A / Fold change vs veh, CUL4A / RFU, CCNY / Fold change vs veh, CCNY / RFU, UFL1 / Fold change vs veh, UFL1 / RFU, COG3 / Fold change vs veh, COG3 / RFU, DIAPH2 / Fold change vs veh, DIAPH2 / RFU, SKA2 / Fold change vs veh, SKA2 / RFU, AFF3 / Fold change vs veh, AFF3 / RFU, LMF1 / Fold change vs veh, LMF1 / RFU, IPO11 / Fold change vs veh, IPO11 / RFU, DFFB / Fold change vs veh, DFFB / RFU, FOXP1 / Fold change vs veh, FOXP1 / RFU, CARD8 / Fold change vs veh, CARD8 / RFU, STRN3 / Fold change vs veh, STRN3 / RFU, ADK / Fold change vs veh, ADK / RFU, RASSF2 / Fold change vs veh, RASSF2 / RFU, WIPF1 / Fold change vs veh, WIPF1 / RFU, LARP1B / Fold change vs veh, LARP1B / RFU, RASA1 / Fold change vs veh, RASA1 / RFU, RB1 / Fold change vs veh, RB1 / RFU, PPFIA1 / Fold change vs veh, PPFIA1 / RFU, MAT2A / Fold change vs veh, MAT2A / RFU, CCT5 / Fold change vs veh, CCT5 / RFU, WDR92 / Fold change vs veh, WDR92 / RFU, CUX1 / Fold change vs veh, CUX1 / RFU, TTC7A / Fold change vs veh, TTC7A / RFU, TMEM135 / Fold change vs veh, TMEM135 / RFU, DEPTOR / Fold change vs veh, DEPTOR / RFU, CPM / Fold change vs veh, CPM / RFU, DNAJB6 / Fold change vs veh, DNAJB6 / RFU, CACNA2D3 / Fold change vs veh, CACNA2D3 / RFU, DTX4 / Fold change vs veh, DTX4 / RFU, TFCP2 / Fold change vs veh, TFCP2 / RFU, GMCL1 /// GMCL1P1 / Fold change vs veh, GMCL1 /// GMCL1P1 / RFU, AEBP2 / Fold change vs veh, AEBP2 / RFU, SNHG1 /// SNORD22 /// SNORD25 /// SNORD26 /// SNORD27 /// SNORD28 /// SNORD29 /// SNORD31 / Fold change vs veh, SNHG1 /// SNORD22 /// SNORD25 /// SNORD26 /// SNORD27 /// SNORD28 /// SNORD29 /// SNORD31 / Fold change (Aza/veh), C12orf56 (ProbeSet 11735607_a_at) / Fold change (ACY-1035/veh), C12orf56 (ProbeSet 11735607_a_at) / Fold change (Aza/veh), FGFR1OP (ProbeSet 11751329_s_at) / Fold change (ACY-1035/veh), FGFR1OP (ProbeSet 11751329_s_at) / Fold change (Aza/veh), VPS36 (ProbeSet 11739960_a_at) / Fold change (ACY-1035/veh), VPS36 (ProbeSet 11739960_a_at) / RFU SYPL1 (11715823_x_at) / Fold change /veh SYPL1 (11715823_x_at) / RFU IGFBP7 (11715501_s_at) / Fold change /veh IGFBP7 (11715501_s_at) / RFU REEP3 (11722064_at) / Fold change /veh REEP3 (11722064_at) / RFU IGLL1 (11728026_x_at) / Fold change /veh IGLL1 (11728026_x_at): dose or concentration left out as unconfirmed.

Take `Nc1ccc(-c2cccs2)cc1NC(=O)c1ccc2c(c1)cc(C1CC1)n2CCN1CCOCC1` [ACY-1035]: the “Fold change vs veh, SLMO2” value stood at 0.88.
